According to patent US20200231638A1, “STABILIZED ANTI-MICROBIAL PEPTIDES” (priority 2015, published 2020):
Bridge positions count the residues as written; N and C are the ends. Square brackets hold non-standard residues; d marks the D form. Peptide text beside a SMILES is read from it. S5 = C=CCCC[C@](C)(N)C(=O)O; Nle = CCCC[C@H](N)C(=O)O

Assays:
human red blood cells = assay type: cell-based; details: red cells of human, 1 h, 25
How it was run: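 Washed human RBCs as 1% (v/v) suspension in phosphate-buffered saline incubated 1 h at 37° C with serially diluted peptides. Hemoglobin release in supernatant measured spectrophotometrically (570 nm), % hemolysis relative to untreated and 1% Triton-X100 controls; MHC defined as concentration giving less than 1% release.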

P. aeruginosa = assay type: cell-based, Pseudomonas aeruginosa
How it was run: (§1)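 Broth microdilution in anion-exchange-refined Mueller-Hinton broth; serially diluted peptide mixed with bacteria at 5×10^5 CFU/ml final inoculum. Incubated 20-24 hours at 37° C. MIC taken as lowest peptide concentration with no visible growth.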

E. coli = assay type: cell-based, Escherichia coli
How it was run: as §1

B. cereus = assay type: cell-based, Bacillus cereus
How it was run: as §1

S. aureus = assay type: cell-based, Staphylococcus aureus
How it was run: as §1

Row | SMILES | % Hemolysis at 25 μg/ml (human red blood cells) | MIC P. aeruginosa (P. aeruginosa) | MIC E. coli (E. coli) | MIC B. cereus (B. cereus) | MIC S. aureus (S. aureus)
1 | CCCC[C@H](NC(=O)[C@]1(C)CCCC=CCCC[C@](C)(NC(=O)[C@H](C)NC(=O)[C@H](CCCCN)NC(=O)CNC(=O)[C@H](Cc2ccccc2)NC(=O)[C@H](CCCCN)NC(=O)[C@H](CCCCN)NC(=O)[C@H](C)NC(=O)[C@H](CO)NC(=O)[C@H](Cc2c[nH]cn2)NC(=O)[C@H](CC(C)C)NC(=O)[C@H](Cc2ccccc2)NC(=O)[C@H](CCC(=O)O)NC(=O)CNC(=O)[C@@H](NC(=O)CN)[C@@H](C)CC)C(=O)N[C@@H](C(C)C)C(=O)NCC(=O)N[C@@H](CCC(=O)O)C(=O)N1)C(=O)N[C@@H](CC(N)=O)C(=O)N[C@@H](CO)C(N)=O [Mag(i + 4)15(K4E), GIGEFLHSAKKFGKAXVGEXBNS] (H-GIGEFLHSAKKFGKA[S5]VGE[S5][Nle]NS-NH2; staple 16-20) | 2.2% | >50 µg/mL | 12.5 µg/mL | 50 µg/mL | >50 µg/mL
2 | CCCC[C@H](NC(=O)[C@]1(C)CCCC=CCCC[C@](C)(NC(=O)[C@H](C)NC(=O)[C@H](CCCCN)NC(=O)CNC(=O)[C@H](Cc2ccccc2)NC(=O)[C@H](CCCCN)NC(=O)[C@H](CCC(=O)O)NC(=O)[C@H](C)NC(=O)[C@H](CO)NC(=O)[C@H](Cc2c[nH]cn2)NC(=O)[C@H](CC(C)C)NC(=O)[C@H](Cc2ccccc2)NC(=O)[C@H](CCCCN)NC(=O)CNC(=O)[C@@H](NC(=O)CN)[C@@H](C)CC)C(=O)N[C@@H](C(C)C)C(=O)NCC(=O)N[C@@H](CCC(=O)O)C(=O)N1)C(=O)N[C@@H](CC(N)=O)C(=O)N[C@@H](CO)C(N)=O [Mag(i + 4)15(K10E), GIGKFLHSAEKFGKAXVGEXBNS] (H-GIGKFLHSAEKFGKA[S5]VGE[S5][Nle]NS-NH2; staple 16-20) | 2.4% | >50 µg/mL | 6.2 µg/mL | >50 µg/mL | >50 µg/mL
3 | CCCC[C@H](NC(=O)[C@]1(C)CCCC=CCCC[C@](C)(NC(=O)[C@H](C)NC(=O)[C@H](CCCCN)NC(=O)CNC(=O)[C@H](Cc2ccccc2)NC(=O)[C@H](CCC(=O)O)NC(=O)[C@H](CCCCN)NC(=O)[C@H](C)NC(=O)[C@H](CO)NC(=O)[C@H](Cc2c[nH]cn2)NC(=O)[C@H](CC(C)C)NC(=O)[C@H](Cc2ccccc2)NC(=O)[C@H](CCCCN)NC(=O)CNC(=O)[C@@H](NC(=O)CN)[C@@H](C)CC)C(=O)N[C@@H](C(C)C)C(=O)NCC(=O)N[C@@H](CCC(=O)O)C(=O)N1)C(=O)N[C@@H](CC(N)=O)C(=O)N[C@@H](CO)C(N)=O [Mag(i + 4)15(K11E), GIGKFLHSAKEFGKAXVGEXBNS] (H-GIGKFLHSAKEFGKA[S5]VGE[S5][Nle]NS-NH2; staple 16-20) | 2.9% | >50 µg/mL | 6.2 µg/mL | 12.5 µg/mL | 50 µg/mL
4 | CCCC[C@H](NC(=O)[C@]1(C)CCCC=CCCC[C@](C)(NC(=O)[C@H](C)NC(=O)[C@H](CCCCN)NC(=O)CNC(=O)[C@H](Cc2ccccc2)NC(=O)[C@H](CCCCN)NC(=O)[C@H](CCCCN)NC(=O)[C@H](C)NC(=O)[C@H](CO)NC(=O)[C@H](Cc2c[nH]cn2)NC(=O)[C@H](CCC(=O)O)NC(=O)[C@H](Cc2ccccc2)NC(=O)[C@H](CCCCN)NC(=O)CNC(=O)[C@@H](NC(=O)CN)[C@@H](C)CC)C(=O)N[C@@H](C(C)C)C(=O)NCC(=O)N[C@@H](CCC(=O)O)C(=O)N1)C(=O)N[C@@H](CC(N)=O)C(=O)N[C@@H](CO)C(N)=O [Mag(i + 4)15(L6E), GIGKFEHSAKKFGKAXVGEXBNS] (H-GIGKFEHSAKKFGKA[S5]VGE[S5][Nle]NS-NH2; staple 16-20) | 1.1% | >50 µg/mL | 50 µg/mL | >50 µg/mL | >50 µg/mL
5 | CCCC[C@H](NC(=O)[C@]1(C)CCCC=CCCC[C@](C)(NC(=O)[C@H](C)NC(=O)[C@H](CCCCN)NC(=O)CNC(=O)[C@H](Cc2ccccc2)NC(=O)[C@H](CCCCN)NC(=O)[C@H](CCCCN)NC(=O)[C@H](C)NC(=O)[C@H](CO)NC(=O)[C@H](Cc2c[nH]cn2)NC(=O)[C@H](CCCCN)NC(=O)[C@H](Cc2ccccc2)NC(=O)[C@H](CCCCN)NC(=O)CNC(=O)[C@@H](NC(=O)CN)[C@@H](C)CC)C(=O)N[C@@H](C(C)C)C(=O)NCC(=O)N[C@@H](CCC(=O)O)C(=O)N1)C(=O)N[C@@H](CC(N)=O)C(=O)N[C@@H](CO)C(N)=O [Mag(i + 4)15(L6K), GIGKFKHSAKKFGKAXVGEXBNS] (H-GIGKFKHSAKKFGKA[S5]VGE[S5][Nle]NS-NH2; staple 16-20) | 1.9% | 12.5 µg/mL | 3.1 µg/mL | >50 µg/mL | >50 µg/mL
6 | CCCC[C@H](NC(=O)[C@]1(C)CCCC=CCCC[C@](C)(NC(=O)[C@H](C)NC(=O)[C@H](CCCCN)NC(=O)CNC(=O)[C@H](Cc2ccccc2)NC(=O)[C@H](CCCCN)NC(=O)[C@H](CCCCN)NC(=O)[C@H](C)NC(=O)[C@H](CO)NC(=O)[C@H](Cc2c[nH]cn2)NC(=O)[C@H](CC(C)C)NC(=O)[C@H](Cc2ccccc2)NC(=O)[C@H](CCCCN)NC(=O)CNC(=O)[C@@H](NC(=O)CN)[C@@H](C)CC)C(=O)N[C@@H](C(C)C)C(=O)NCC(=O)N[C@@H](CCC(=O)O)C(=O)N1)C(=O)N[C@@H](CCC(=O)O)C(=O)N[C@@H](CO)C(N)=O [Mag(i + 4)15(N22E), GIGKFLHSAKKFGKAXVGEXBES] (H-GIGKFLHSAKKFGKA[S5]VGE[S5][Nle]ES-NH2; staple 16-20) | 3.4% | 12.5 µg/mL | 3.1 µg/mL | 12.5 µg/mL | 25 µg/mL
7 | CCCC[C@H](NC(=O)[C@]1(C)CCCC=CCCC[C@](C)(NC(=O)[C@H](C)NC(=O)[C@H](CCCCN)NC(=O)CNC(=O)[C@H](Cc2ccccc2)NC(=O)[C@H](CCCCN)NC(=O)[C@H](CCCCN)NC(=O)[C@H](C)NC(=O)[C@H](CO)NC(=O)[C@H](Cc2c[nH]cn2)NC(=O)[C@H](CC(C)C)NC(=O)[C@H](Cc2ccccc2)NC(=O)[C@H](CCCCN)NC(=O)CNC(=O)[C@@H](NC(=O)CN)[C@@H](C)CC)C(=O)N[C@@H](C(C)C)C(=O)NCC(=O)N[C@@H](CCC(=O)O)C(=O)N1)C(=O)N[C@@H](CCCCN)C(=O)N[C@@H](CO)C(N)=O [Mag(i + 4)15(N22K), GIGKFLHSAKKFGKAXVGEXBKS] (H-GIGKFLHSAKKFGKA[S5]VGE[S5][Nle]KS-NH2; staple 16-20) | 12.0% | 3.1 µg/mL | 1.6 µg/mL | 3.1 µg/mL | 12.5 µg/mL
8 | CCCC[C@H](NC(=O)[C@]1(C)CCCC=CCCC[C@](C)(NC(=O)[C@H](C)NC(=O)[C@H](CCCCN)NC(=O)CNC(=O)[C@H](Cc2ccccc2)NC(=O)[C@H](CCCCN)NC(=O)[C@H](CCCCN)NC(=O)[C@H](C)NC(=O)[C@H](Cc2c[nH]cn2)NC(=O)[C@H](Cc2c[nH]cn2)NC(=O)[C@H](CC(C)C)NC(=O)[C@H](Cc2ccccc2)NC(=O)[C@H](CCCCN)NC(=O)CNC(=O)[C@@H](NC(=O)CN)[C@@H](C)CC)C(=O)N[C@@H](C(C)C)C(=O)NCC(=O)N[C@@H](CCC(=O)O)C(=O)N1)C(=O)N[C@@H](CC(N)=O)C(=O)N[C@@H](CO)C(N)=O [Mag(i + 4)15(S8H), GIGKFLHHAKKFGKAXVGEXBNS] (H-GIGKFLHHAKKFGKA[S5]VGE[S5][Nle]NS-NH2; staple 16-20) | 8.7% | 3.1 µg/mL | 1.6 µg/mL | 3.1 µg/mL | 3.1 µg/mL
